Series [1] concerns Mycosphaerella graminicola (Septoria tritici). Kind of series: Mycosphaerella graminicola (Septoria tritici)/Liquid Culture (Septoria Blotch). To be noted: Zymoseptoria tritici; 20 ppm; liquid culture; compared to untreated control. Type of series: cell-based. A digest of the protocol: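 Conidia from cryogenic storage mixed into potato dextrose broth and added to microtiter wells already holding DMSO solutions of test compound. Activity expressed as percentage disease control.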

The subject of the next series is Plasmopara viticola. In words: whole plant or invertebrate. Type of series: in vivo. To be noted: foliar, read-out: control of Plasmopara viticola.
Series [2] concerns Magnaporthe grisea (Pyricularia oryzae). In words: whole plant or invertebrate. Type of series: in vivo. To be noted: foliar, read-out: control of Magnaporthe grisea.
For a further series, the system named is Phytophthora infestans. In words: whole plant or invertebrate. To be noted: in Solanum lycopersicum, foliar, read-out: control of Phytophthora infestans. Type of series: in vivo.
Series [3] relates to Monographella nivalis (Microdochium nivale). Kind of series: Monographella nivalis (Microdochium nivale)/Liquid Culture (Foot Rot Cereals). It is filed as cell-based. To be noted: liquid culture, compared to untreated control. A digest of the protocol: (§1)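 Test compound dissolved in DMSO is dispensed first; nutrient broth (potato dextrose) carrying conidia thawed from cryogenic storage follows.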

The test system of a further series is Pyrenophora teres. Kind of series: Pyrenophora teres/Barley/Leaf Disc Preventative (Net Blotch). To be noted: foliar, 200 ppm, barley leaf disc preventative, compared to untreated control, read-out: control of Pyrenophora teres. It is filed as in vivo. A digest of the protocol:
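Formulated compound, diluted in water, sprayed onto barley cv. Hasso leaf segments on agar; spore suspension inoculation followed 2 days after application. Results expressed as percentage disease control.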

A further series relates to Alternaria solani. In words: Alternaria solani/Tomato/Leaf Disc (Early Blight). To be noted: foliar, tomato leaf disc, compared to untreated control. It is filed as in vivo. On the procedure: Tomato leaf disks cv. Baby are placed on agar in multiwell plates (24-well format) and sprayed with the formulated test compound diluted in water. The leaf disks are inoculated with a spore suspension of the fungus 2 days after application. The inoculated leaf disks are incubated at 23° C./21° C. (day/night) and 80% rh (relative humidity) under a light regime of 12/12 h (light/dark) in a climate cabinet and the activity of a compound is assessed as percent disease control compared to untreated when an appropriate level of disease damage appears on untreated check disk leaf disks (5-7 days after application).

The test system of series [4] is Mycosphaerella arachidis (Cercospora arachidicola). Kind of series: Mycosphaerella arachidis (Cercospora arachidicola)/Liquid Culture (Early Leaf Spot). To be noted: liquid culture, compared to untreated control. Type of series: cell-based. A digest of the protocol: as §1
The test system of series [5] is Glomerella lagenarium (Colletotrichum lagenarium). In words: Glomerella lagenarium (Colletotrichum lagenarium)/Liquid Culture (Anthracnose). To be noted: Colletotrichum orbiculare, liquid culture, compared to untreated control. It is filed as cell-based.
In series [6] the test system is Blumeria graminis f. sp. tritici (Erysiphe graminis f. sp. tritici). Kind of series: Blumeria graminis f. sp. tritici/Wheat/Leaf Disc Preventative (Powdery Mildew on Wheat). It is filed as in vivo. To be noted: foliar, wheat leaf disc preventative, compared to untreated control. In a few lines: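 Wheat cv. Kanzler leaf segments on agar sprayed with formulated compound, inoculated with powdery mildew 1 day later and held at 20° C, 60% rh (24 h dark, then 12 h light/12 h dark). Percent disease control versus untreated scored 6-8 days after application.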

For series [7], the system named is Phaeosphaeria nodorum (Septoria nodorum). In words: Phaeosphaeria nodorum (Septoria nodorum)/Wheat/Leaf Disc Preventative (Glume Blotch). To be noted: Parastagonospora nodorum, foliar, wheat leaf disc preventative, compared to untreated control. It is filed as in vivo. In a few lines: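 Wheat cv. Kanzler leaf discs on agar were sprayed with formulated compound diluted in water and inoculated with P. nodorum spores 2 days later. Discs kept at 20 °C, 75% rh, 12 h light/dark; percent disease control versus untreated scored 5–7 days after application.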

The next series relates to Phakopsora pachyrhizi. Kind of series: Phakopsora pachyrhizi/Soybean/Preventative (Soybean Rust). Type of series: in vivo. To be noted: 288 h, Phakopsora pachyrhizi (Soybean rust).
For series [8], the system named is Puccinia recondita f. sp. tritici. Kind of series: Puccinia recondita f. sp. tritici/Wheat/Leaf Disc Preventative (Brown Rust). To be noted: foliar, 200 ppm, wheat leaf disc preventative, compared to untreated control, read-out: control of Puccinia recondita f. sp. tritici. Type of series: in vivo.
For series [9] the test system is unchanged. Kind of series: Puccinia recondita f. sp. tritici/Wheat/Leaf Disc Curative (Brown Rust). To be noted: foliar, wheat leaf disc curative, compared to untreated control. It is filed as in vivo. In a few lines:
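Curative leaf-disc test on wheat cv. Kanzler segments on agar, spore-inoculated and kept dark at 19° C, 75% rh; formulated compound in water applied 1 day after inoculation. Incubated at 19° C, 75% rh, 12 h light/12 h dark; percent disease control versus untreated scored 6-8 days after application.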

The subject of series [10] is Botryotinia fuckeliana (Botrytis cinerea). Kind of series: Botryotinia fuckeliana (Botrytis cinerea)/Liquid Culture (Gray Mould). Type of series: cell-based. To be noted: liquid culture, compared to untreated control. On the procedure: Conidia of the fungus from cryogenic storage are directly mixed into nutrient broth (Vogels broth). After placing a (DMSO) solution of test compound into a microtiter plate (96-well format), the nutrient broth containing the fungal spores is added.

Regarding `CO/C=C(\Oc1cc(-n2ncc(C(C)C)n2)ccc1C)C(=O)OC` [Compound F-4, methyl (Z)-2-[5-(4-isopropyltriazol-2-yl)-2-methyl-phenoxy]-3-methoxy-prop-2-enoate], the inhibition of growth at 20 ppm in series [1], in series [3], in series [4] and in series [5] was not below 80% throughout. Further, the pest or weed control at 200 ppm (in the series on Plasmopara viticola; in series [2]; with Phytophthora infestans; with Pyrenophora teres; in the series on Alternaria solani; in series [6]) was not below 80% throughout. This compound also gave a pest or weed control at 200 ppm in series [7] not below 80%.
As for `CCCc1cnn(-c2ccc(C)c(O/C(=C\OC)C(=O)OC)c2)n1` [Compound F-2, methyl (Z)-3-methoxy-2-[2-methyl-5-(4-propyltriazol-2-yl)phenoxy]prop-2-enoate], the inhibition of growth at 20 ppm in series [1], in series [3], in [4] and in series [5] was not below 80% each time. Besides, the pest or weed control at 0.6 ppm with Phakopsora pachyrhizi (0.6 ppm) was determined as 0%. The compound further registered a pest or weed control at 2 ppm with Phakopsora pachyrhizi (2 ppm) of 20%. Besides, the pest or weed control at 6 ppm in the series on Phakopsora pachyrhizi (6 ppm) worked out at 50%. The pest or weed control at 20 ppm in the series on Phakopsora pachyrhizi (20 ppm) amounted to 90%. In the series with Phakopsora pachyrhizi (60 ppm), this compound came in with a pest or weed control at 60 ppm of 100%. In addition, the pest or weed control at 200 ppm with Phakopsora pachyrhizi (200 ppm, read-out: control (%)) is 100%; with Plasmopara viticola, not below 80%; in [2] it was not below 80%; with Phytophthora infestans, not below 80%; in the series with Pyrenophora teres, not below 80%; in the series with Alternaria solani, not below 80%. Further, the pest or weed control at 200 ppm in series [7] is not below 80%.
With `CO/C=C(\Oc1cc(-n2ccc(Br)n2)ccc1C)C(=O)OC` [Compound E-83, methyl (Z)-2-[5-(3-bromopyrazol-1-yl)-2-methyl-phenoxy]-3-methoxy-prop-2-enoate], the melting point was in the range of 106 to 110 °C. Also, the inhibition of growth at 20 ppm in [1] is not below 80%. For the same compound, the pest or weed control at 200 ppm with Plasmopara viticola is not below 80%. In series [2], the pest or weed control at 200 ppm was not below 80%. The pest or weed control at 200 ppm with Phytophthora infestans was not below 80%. The same compound registered an inhibition of growth at 20 ppm in series [3] not below 80%. Moreover, the pest or weed control at 200 ppm in [8] is not below 80%. In addition, in the series on Pyrenophora teres, the pest or weed control at 200 ppm is not below 80%. The same compound yielded a pest or weed control at 200 ppm in the series with Alternaria solani not below 80%. This compound also registered an inhibition of growth at 20 ppm in series [4] not below 80%. The same compound had an inhibition of growth at 20 ppm in series [5] not below 80%. For the same compound, the pest or weed control at 200 ppm in series [6] is not below 80%. Further, the pest or weed control at 200 ppm in series [7] is not below 80%.
The compound `CO/C=C(\Oc1cc(-n2ccc(C#CC3CC3)n2)ccc1C)C(=O)OC` [Compound E-1, methyl (Z)-2-[5-[3-(2-cyclopropylethynyl)pyra-zol-1-yl]-2-methyl-phenoxy]-3-methoxy-prop-2-enoate] yielded a melting point of 158 to 162 °C. In addition, the inhibition of growth at 20 ppm in series [1] is not below 80%. Moreover, the pest or weed control at 200 ppm in the series with Plasmopara viticola was not below 80%. Moreover, in [2], the pest or weed control at 200 ppm is not below 80%. For the same compound, the pest or weed control at 200 ppm with Phytophthora infestans was not below 80%. In [3], this compound returned an inhibition of growth at 20 ppm not below 80%. For the same compound, the pest or weed control at 200 ppm in series [8] was not below 80%. The pest or weed control at 200 ppm in the series with Pyrenophora teres is not below 80%. Besides, the pest or weed control at 200 ppm in the series with Alternaria solani was not below 80%. Further, the inhibition of growth at 20 ppm in [4] was not below 80%. The same compound registered a pest or weed control at 200 ppm in [7] not below 80%.
As to `CO/C=C(\Oc1cc(-n2nc(Br)c(Br)n2)ccc1C)C(=O)OC` [Compound F-10, methyl (Z)-2-[5-(4,5-dibromotriazol-2-yl)-2-methyl-phenoxy]-3-methoxy-prop-2-enoate], the inhibition of growth at 20 ppm in series [1], in series [4] and in [5] was not below 80% each time. The pest or weed control at 200 ppm (in the series on Plasmopara viticola; in series [2]; with Phytophthora infestans; in series [8]; with Pyrenophora teres; with Alternaria solani) was not below 80% throughout. For the same compound, the pest or weed control at 200 ppm in [6] and in series [7] was not below 80% in each case.
On to `CO/C=C(\Oc1cc(-n2ncc(Br)n2)ccc1C)C(=O)OC` [Compound F-1, methyl (Z)-2-[5-(4-bromotriazol-2-yl)-2-methyl-phenoxy]-3-methoxy-prop-2-enoate], for which the inhibition of growth at 20 ppm in series [1], in series [3], in series [4] and in [5] was not below 80% in each case. For the same compound, the pest or weed control at 200 ppm (with Plasmopara viticola; in series [2]; in the series on Phytophthora infestans; in [9]; in series [8]; in the series with Pyrenophora teres) was not below 80% throughout. Moreover, the pest or weed control at 200 ppm (with Alternaria solani; in series [6]; in series [7]) was not below 80% each time.
Turning to `CO/C=C(\Oc1cc(-n2ccc(C(C)C)n2)c(Cl)cc1C)C(=O)OC` [Compound E-29, methyl (Z)-2-[4-chloro-5-(3-isopropylpyrazol-1-yl)-2-methyl-phenoxy]-3-methoxy-prop-2-enoate], the melting point was 96 to 98 °C. This compound registered an inhibition of growth at 20 ppm in series [1] not below 80%. The pest or weed control at 200 ppm in the series on Plasmopara viticola was not below 80%. In addition, the pest or weed control at 200 ppm in series [2] was not below 80%. The pest or weed control at 200 ppm in the series on Phytophthora infestans was not below 80%. In [9], this compound registered a pest or weed control at 200 ppm not below 80%. In addition, the inhibition of growth at 20 ppm in [3] is not below 80%. The pest or weed control at 200 ppm in series [8] is not below 80%. Besides, the pest or weed control at 200 ppm in the series with Alternaria solani is not below 80%. Moreover, the inhibition of growth at 20 ppm in series [10] was not below 80%. Further, the inhibition of growth at 20 ppm in series [4] was not below 80%. The inhibition of growth at 20 ppm in [5] is not below 80%. The pest or weed control at 200 ppm in series [6] is not below 80%. Also, the pest or weed control at 200 ppm in series [7] was not below 80%.
In the case of `CO/C=C(\Oc1cc(-n2ncc(C3CCCC3)n2)ccc1C)C(=O)OC` [Compound F-5, methyl (Z)-2-[5-(4-cyclopentyltriazol-2-yl)-2-methyl-phenoxy]-3-methoxy-prop-2-enoate], the inhibition of growth at 20 ppm in [1], in series [3], in series [4] and in [5] was not below 80% throughout. The pest or weed control at 200 ppm (with Plasmopara viticola; in series [2]; in the series on Phytophthora infestans; in [9]; in [8]; in the series with Pyrenophora teres) was not below 80% in each case. In addition, the pest or weed control at 200 ppm (with Alternaria solani; in series [6]; in series [7]) was not below 80% each time.

In general, inhibition of growth refers to the drop in the measured response relative to a control, in per cent. Higher therefore signals strong suppression. For orientation: melting point means the temperature, or range, at which the solid turns liquid.

The values are drawn from patent publication US12043600B2, “Microbiocidal compounds” (SYNGENTA CROP PROTECTION AG, priority 2018, dated 2024).
